In patent US9464064B2, “HCV helicase inhibitors and methods of use thereof” (University of Kansas, priority 2011, dated 2016):

Target: T1, HCV NS3 helicase NS3h_1b(con1) (Hepatitis C virus genotype 1b, UniProt Q9WMX2)
T1 construct: truncated C-terminally His-tagged NS3 proteins lacking the N-terminal protease, called NS3h; His-tag (C); made in house
Assay: MBHA screen of NCI mechanistic set library at 20 μM (percent inhibition, compound interference)
Type: biochemical
Settings: compounds at 20 μM; for Inh. (%) (Inhibition): calculated from Equation 1
Summary of the method: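 Molecular beacon-based DNA unwinding assay; compounds screened at 20 μM in triplicate, with DMSO-only negative and 500 nM dT20 positive controls. Fluorescence (ex 643/em 670 nm) was read before and 30 min after adding ATP to 1 mM. Percent inhibition came from the change relative to DMSO controls; interference from pre-ATP fluorescence versus DMSO controls.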

[1] = MBHA with DNA substrate, assay interference calculated with Equation 2
[2] = assay interference calculated with Equation 2 (fluorescence vs DMSO-only controls before ATP)

T1 sequence (Q9WMX2 1192-1657): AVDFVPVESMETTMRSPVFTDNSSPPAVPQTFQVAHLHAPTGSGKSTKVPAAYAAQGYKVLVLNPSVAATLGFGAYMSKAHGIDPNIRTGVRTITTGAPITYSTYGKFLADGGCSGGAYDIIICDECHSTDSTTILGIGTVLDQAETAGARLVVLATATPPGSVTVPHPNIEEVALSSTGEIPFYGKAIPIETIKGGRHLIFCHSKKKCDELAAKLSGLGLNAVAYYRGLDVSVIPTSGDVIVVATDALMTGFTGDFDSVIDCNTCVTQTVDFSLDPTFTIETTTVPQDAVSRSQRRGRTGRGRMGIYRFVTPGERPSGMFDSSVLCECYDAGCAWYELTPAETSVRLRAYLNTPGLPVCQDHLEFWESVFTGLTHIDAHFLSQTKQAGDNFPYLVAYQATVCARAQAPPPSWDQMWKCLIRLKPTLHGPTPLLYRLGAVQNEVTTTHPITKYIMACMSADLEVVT

SMILES	Int.* (Ratio) (Interference) [1]	Inh. (%) (Inhibition) (MBHA with DNA substrate)	Inh. (%) (Inhibition) (MBHA with a DNA substrate)	Int.* (Ratio) (Interference) [2]
CC(C)N.CC(C)N.[Cl-].[Cl-].[OH-].[OH-].[Pt] [Compound 256927]	1.02	−0.4		
Clc1ccccc1C(c1ccccc1)(c1ccccc1)n1ccnc1 [Compound 257473]	1.08	−8.4		
COc1cccc2c1C(=O)c1c(O)c3c(c(O)c1C2=O)C[C@@](O)(C(C)=O)C[C@@H]3OC1CC(N(C)C)C(O)C(C)O1.Cl (stereo partly drawn) [Compound 258812]	0.64	46.4		
COc1ccc2c(NCCCCCCNc3c4ccccc4nc4cc(OC)ccc34)c3ccccc3nc2c1 [Compound 260610]			10.7	0.27
Nc1cc2[nH]cnc2c(=O)[nH]1 [Compound 261726]			9.6	0.96
COc1ccc(/C=C2\N=C(c3ccccc3)OC2=O)c(OCc2ccccc2)c1 [Compound 262665]			−3.4	0.95
C[n+]1ccc(-c2cc[n+](C)cc2)cc1.[Cl-].[Cl-] [Compound 263500]	1.18	−8.7		
NC1=NCN([C@@H]2O[C@H](CO)[C@@H](O)[C@H]2O)C(=O)N1 [Compound 264880]			−43.3	1.28
CC[C@@]1(O)C[C@H](O[C@H]2C[C@H](N(C)C)[C@H](O[C@H]3C[C@H](O)[C@H](O[C@H]4C[C@H](O)[C@H](O)[C@H](C)O4)[C@H](C)O3)[C@H](C)O2)c2c(cc3c(c2O)C(=O)c2c(O)ccc(O)c2C3=O)[C@H]1C(=O)OC [Compound 265211]			8.9	0.82
COC1C(C)OC(OC2CC(C)(O)Cc3cc4c(c(O)c32)C(=O)c2c(O)cc3c(c2C4=O)OC2OC3(C)C(O)C(N(C)C)C2O)C(OC)C1(C)OC (stereo not drawn) [Compound 265450]	0.54	38.9		
NC1CCCCC1N.[Cl-].[Cl-].[Pt+2] (stereo not drawn) [Compound 265459]	1.00	−9.8		
CCCCCCCCCCSCC(CO)NC(=O)/C=C/c1c(C)[nH]c(=O)[nH]c1=O (stereo not drawn) [Compound 265473]			11.0	0.96
O=C1N[C@@H]2C(=C[C@H](O)[C@@H](O)[C@H]2O)c2cc3c(c(O)c21)OCO3 [Compound 266535]			−5.9	0.87
CC(=O)O[C@@H]1C[C@H]2O[C@@H]3C=C(C)CC[C@]3(C)[C@]1(C)[C@]21CO1 [Compound 267033]	1.04	6.7		
COc1ccc(S(=O)(=O)N/N=C/C(=O)O)cc1 [Compound 267213]	1.05	2.9		
CC[C@@]1(O)C[C@H](O[C@H]2C[C@H](N(C)C)[C@H](O)[C@H](C)O2)c2c(cc3c(c2O)C(=O)c2c(O)ccc(O)c2C3=O)[C@H]1C(=O)OC [Compound 267229]	0.49	31.5		
CC1OC(CC(=O)O)CC2=C1C(=O)c1c(O)cccc1C2=O (stereo not drawn) [Compound 267461]	1.01	−14.4		
CCNC(=O)OCc1c(COC(=O)NCC)c(-c2ccc(Cl)c(Cl)c2)n2c1CCC2 [Compound 267700]			−24.0	1.04
C=C(C)C(=O)OC1CCC2(C)C(CCC3C2CCC2(C)C(c4ccc(=O)oc4)CC4OC432)C1 (stereo not drawn) [Compound 267712]			−22.8	1.09
COc1cccc2c1C(=O)c1c(O)c3c(c(O)c1C2=O)C[C@@](O)(C(C)=O)C[C@@H]3O[C@H]1C[C@H](N(Cc2ccccc2)Cc2ccccc2)[C@H](O)[C@H](C)O1.Cl [Compound 268242]	0.88	30.6		
CC(C)CCCCCCCCCCCCC(=O)NCC(=O)NC1C(C)OC(Nc2ncnc3nc[nH]c23)C(O)C1O (stereo not drawn) [Compound 268251]	0.96	0.2		
CC[n+]1c(-c2ccccc2)c2cc(N)ccc2c2ccc(N)cc21.[Br-] [Compound 268986]	0.81	36.0		
CC1=C[C@H]2O[C@@H]3[C@H](O)[C@@H](O)[C@@](C)([C@@]2(CO)CC1)[C@]31CO1 [Compound 269142]			−19.6	1.07
COC(C(=O)C(O)C(C)O)C1Cc2cc3cc(OC4CC(OC5CC(O)C(O)C(C)O5)C(O)C(C)O4)c(C)c(O)c3c(O)c2C(=O)C1OC1CC(OC2CC(OC3CC(O)C(OC)C(C)O3)C(O)C(C)O2)C(O)C(C)O1 (stereo not drawn) [Compound 269146]	0.89	15.0		
